System: SRS-A release
Experiment: Inhibition of SRS-A release from sensitized guinea pig lung fragments challenged with ovalbumin (bioassay on guinea pig ileum)
Assay type: cell-based
Conditions: Cavia porcellus, read-out: Inhibition of SRS-A Release, Percent Inhibition; for inhibition at 1 µM: Drug Concentration 1 × 10^-6 M; for inhibition at 30 µM: Drug Concentration 3 × 10^-5 M; for inhibition at 3 µM: Drug Concentration 3 × 10^-6 M; for inhibition at 10 µM: Drug Concentration 1 × 10^-5 M
Experimental: Male, Hartley guinea pigs, usually 1-2 weeks old were sensitized with respect to ovalbumin by intraperitoneal administration of 0.15 ml. hyperimmune serum obtained from guinea pigs actively sensitized against ovalbumin. After 2 days or more, the animals were decapitated, lungs were excised and perfused through the pulmonary artery with Krebs' bicarbonate solution of the following composition in mmoles/liter: KCl, 4.6; CaCl2.2H2 O, 1.8; KH2 PO4, 1.2; MgSO4. 7H2 O, 1.2; NaCl, 118.2; NaHCO3, 24.8; and dextrose, 10.0.Poorly perfused and bloody areas were discarded. Normal lung was cut into 1 mm. cubes with a McIlwain tissue chopper, washed with Krebs' solution and divided into 400 mg. aliquots. The fragmented tissue was then incubated at 37° C. for 15 minutes in Krebs' solution containing indomethacin to optimize SRS-A release and an appropriate concentration of experimental drug. Antigen (ovalbumin) was then added to make a final concentration of 1×10^-5 g./ml. Fifteen minutes later, the incubation medium was decanted and centrifuged at 3,000×g at 4° C. for 5 minutes. The supernatant solution was collected and assayed for SRS-A using a computerized bioassay that employs the isolated guinea pig ileum (Fleisch et al., J. Pharmacol. Exp. Ther., 209, 238-243, (1979)). Release of SRS-A in the presence of an experimental drug was compared to a control sample and the results expressed as percent inhibition of SRS-A release.

SMILES	inhibition at 1 µM [%]	inhibition at 30 µM [%]	inhibition at 3 µM [%]	inhibition at 10 µM [%]	inhibition at 0.3 µM (Drug Concentration 3 × 10^-7 M) [%]
O=C1C=C(Nc2ccccc2)C(=O)c2nccnc21 [Example 3, 6-anilino-5,8-quinoxalinedione]	8	75	22	–	–
CN(C1=CC(=O)c2nccnc2C1=O)c1ccccc1 [Example 4, 6-(N-methylanilino)-5,8-quinoxalinedione]	22	59	–	18	–
O=C1C=C(Nc2ccccc2F)C(=O)c2nccnc21 [Example 5, 6-(2-fluoroanilino)-5,8-quinoxalinedione]	–	83	12	–	–
O=C1C=C(Nc2cccc(Cl)c2)C(=O)c2nccnc21 [Example 6, 6-(3-chloroanilino)-5,8-quinoxalinedione]	–	71	28	–	–
O=C1C=C(Nc2cccc(F)c2)C(=O)c2nccnc21 [Example 7, 6-(3-fluoroanilino)-5,8-quinoxalinedione]	22	81	48	67	6
Cc1nc2c(nc1C)C(=O)C(Nc1ccccc1)=CC2=O [Example 8, 6-anilino-2,3-dimethyl-5,8-quinoxalinedione]	31	–	40	–	–

From patent US4486432A, “Quinoxalinedione leukotriene release inhibitors” (Eli Lilly and Company, priority 1982, dated 1984)
